Reference: PubChem BioAssay (NCI)
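Values below derive from 48-hour exposures of cells grown in 96-well plates, with endpoints linearly interpolated between the two concentrations bracketing the appropriate inhibition level. GI50 is the concentration that inhibits growth by half. The concentration for full growth arrest is given as TGI.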

Legend:
Test in all cases: inhibition of tumour cell growth, NCI panel, 48 h
[1] = tested on: NCI-H226 lung
[2] = tested on: NCI-H23 lung
[3] = tested on: NCI-H460 lung
[4] = tested on: NCI-H522 lung
[5] = tested on: NCI/ADR-RES ovarian
[6] = tested on: OVCAR-3 ovarian
[7] = tested on: OVCAR-4 ovarian
[8] = tested on: OVCAR-5 ovarian
[9] = tested on: OVCAR-8 ovarian
[10] = tested on: PC-3 prostate
[11] = tested on: RPMI-8226 leukemia
[12] = tested on: RXF 393 renal
[13] = tested on: SF-268 CNS
[14] = tested on: SF-295 CNS
[15] = tested on: SF-539 CNS
[16] = tested on: SK-MEL-2 melanoma
[17] = tested on: SK-MEL-28 melanoma
[18] = tested on: SK-MEL-5 melanoma
[19] = tested on: SK-OV-3 ovarian
[20] = tested on: SN12C renal
[21] = tested on: SNB-19 CNS
[22] = tested on: SNB-75 CNS
[23] = tested on: SR leukemia
[24] = tested on: SW-620 colon
[25] = tested on: T-47D breast
[26] = tested on: TK-10 renal
[27] = tested on: U251 CNS
[28] = tested on: UACC-257 melanoma
[29] = tested on: UACC-62 melanoma
[30] = tested on: UO-31 renal

Structure (SMILES): N#Cc1c(NC(=O)c2ccc(C(F)(F)F)cc2C(F)(F)F)sc2c1CCC(=O)C2
- TGI [1]: 6810 nM
- GI50 [2]: 431 nM
- TGI [2]: 2280 nM
- GI50 [3]: 3130 nM
- TGI [3]: 10900 nM
- GI50 [4]: 169 nM
- TGI [4]: 686 nM
- GI50 [5]: 623 nM
- TGI [5]: 7140 nM
- GI50 [6]: 360 nM
- TGI [6]: 1370 nM
- GI50 [7]: 507 nM
- TGI [7]: 1880 nM
- GI50 [8]: 1040 nM
- TGI [8]: 2670 nM
- GI50 [9]: 569 nM
- TGI [9]: 16500 nM
- GI50 [10]: 249 nM
- TGI [10]: 2360 nM
- GI50 [11]: 209 nM
- TGI [11]: 4110 nM
- GI50 [12]: 293 nM
- TGI [12]: 1270 nM
- GI50 [13]: 2820 nM
- TGI [13]: 13200 nM
- GI50 [14]: 1990 nM
- TGI [14]: 6400 nM
- GI50 [15]: 316 nM
- TGI [15]: 1150 nM
- GI50 [16]: 2230 nM
- TGI [16]: 4550 nM
- GI50 [17]: 613 nM
- TGI [17]: 1900 nM
- GI50 [18]: 804 nM
- TGI [18]: 2080 nM
- GI50 [19]: 2660 nM
- TGI [19]: 7230 nM
- GI50 [20]: 675 nM
- TGI [20]: 11100 nM
- GI50 [21]: 3690 nM
- TGI [21]: 14100 nM
- GI50 [22]: 1460 nM
- TGI [22]: 4900 nM
- GI50 [23]: 303 nM
- TGI [23]: > 100000 nM
- GI50 [24]: 363 nM
- TGI [24]: 1610 nM
- GI50 [25]: 358 nM
- TGI [25]: 2960 nM
- GI50 [26]: 367 nM
- TGI [26]: 2190 nM
- GI50 [27]: 800 nM
- TGI [27]: 13200 nM
- GI50 [28]: 1500 nM
- TGI [28]: 3630 nM
- GI50 [29]: 501 nM
- TGI [29]: 1870 nM
- GI50 [30]: 339 nM
- TGI [30]: 1310 nM
